pIC50: −log10 of the molar value. Numbered stars: 1 amine (or outer) side, 2 acyl side, 3 side chain; on linkers, the order of the positions; unused ones are H or OH. Bridge positions count the residues as written; N and C are the ends. Square brackets hold non-standard residues; d marks the D form. Peptide text beside a SMILES is read from it. * marks the point of attachment. Trp(βS-Me,7-OMe) = COc1cccc2c([C@H](C)[C@H](N)C(=O)O)c[nH]c12; Trp(1-CH2COOH) = N[C@@H](Cc1cn(CC(=O)O)c2ccccc12)C(=O)O; Phe(4-CH2CH2COOH) = N[C@@H](Cc1ccc(CCC(=O)O)cc1)C(=O)O; Phe(4-SO2NH2) = N[C@@H](Cc1ccc(S(N)(=O)=O)cc1)C(=O)O; Phe(2-F,4-COOH) = N[C@@H](Cc1ccc(C(=O)O)cc1F)C(=O)O; dPro(trans-4-NMe2) = CN(C)[C@@H]1CN[C@@H](C(=O)O)C1; Trp(7-CN) = N#Cc1cccc2c(C[C@H](N)C(=O)O)c[nH]c12; Trp(7-Cl) = N[C@@H](Cc1c[nH]c2c(Cl)cccc12)C(=O)O; X20 = O=C1NCc2ccc(C[C@H](N[*:1])C(=O)[*:2])cc21; Phe(3-CONH2) = NC(=O)c1cccc(C[C@H](N)C(=O)O)c1; Phe(4-CONH2) = NC(=O)c1ccc(C[C@H](N)C(=O)O)cc1; Phe(4-COOH) = N[C@@H](Cc1ccc(C(=O)O)cc1)C(=O)O; 4Pal(3S-Me) = C[C@@H](c1ccncc1)[C@H](N)C(=O)O; Trp(7-aza) = N[C@@H](Cc1c[nH]c2ncccc12)C(=O)O; Phe(4-CH2NH2) = NCc1ccc(C[C@H](N)C(=O)O)cc1; dPro(trans-4-F) = O=C(O)[C@H]1C[C@H](F)CN1; dPro(4S-NH2) = N[C@@H]1CN[C@@H](C(=O)O)C1; Pip(5R-OH) = O=C(O)[C@@H]1CC[C@@H](O)CN1; X1 = O=C([C@@H]1CC[C@H](N[*:1])C1)[*:2]; Met(O2) = CS(=O)(=O)CC[C@H](N)C(=O)O; NMeT = CN[C@H](C(=O)O)[C@@H](C)O; 4Pal = N[C@@H](Cc1ccncc1)C(=O)O; NMeE = CN[C@@H](CCC(=O)O)C(=O)O; dHyp = O=C(O)[C@H]1C[C@H](O)CN1; Ahp(2) = CCCCC[C@H](N)C(=O)O; NEtAla = CCN[C@@H](C)C(=O)O; αMeS = C[C@](N)(CO)C(=O)O; Carboxymethyl = O=C(O)C*; Nle = CCCC[C@H](N)C(=O)O; Sar = CNCC(=O)O
target: T1, TNFα-induced NF-κB signal transduction pathway (TNFR1 signaling) in THP-1 cells (Homo sapiens, UniProt P19438); test: THP-1 Lucia NF-κB reporter cell assay, inhibition of TNFα-induced NF-κB signaling; assay type: cell-based; conditions: THP-1 NF-κB Lucia reporter cells, 10 ng/mL TNFα, 16-18 h, secreted luciferase; read-out: THP-1 IC50
T1 sequence (P19438 30-455): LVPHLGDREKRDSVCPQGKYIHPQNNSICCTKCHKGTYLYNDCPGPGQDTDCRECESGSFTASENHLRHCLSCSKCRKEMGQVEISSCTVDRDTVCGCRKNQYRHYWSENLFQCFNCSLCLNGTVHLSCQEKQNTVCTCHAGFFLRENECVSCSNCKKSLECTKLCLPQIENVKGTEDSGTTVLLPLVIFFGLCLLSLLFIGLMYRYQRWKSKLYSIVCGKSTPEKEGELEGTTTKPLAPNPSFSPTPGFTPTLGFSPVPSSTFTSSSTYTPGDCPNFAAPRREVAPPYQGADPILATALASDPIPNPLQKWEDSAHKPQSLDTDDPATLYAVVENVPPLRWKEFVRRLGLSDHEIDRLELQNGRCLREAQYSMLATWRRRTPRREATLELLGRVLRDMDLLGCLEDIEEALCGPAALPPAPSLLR
Outline: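 Read-out: secreted Lucia luciferase luminescence (QUANTI-Luc) from supernatant after 16-18 h, 37 °C, 10 ng/mL rhTNFα. Peptide pretreatment 1 h at 37 °C; 20,000 cells/well, selection antibiotics omitted. IC50 via 4-parameter logistic model against min/max controls.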

SMILES	pIC50
CCCC[C@@H]1NC(=O)[C@@H]2CC[C@@H](C2)NC(=O)[C@H]([C@@H](C)c2c[nH]c3c(OC)cccc23)NC(=O)CN(C)C(=O)[C@H](Cc2ccc(C(N)=O)cc2)NC(=O)[C@H](Cc2ccc(S(N)(=O)=O)cc2)NC(=O)[C@](C)(CO)NC(=O)[C@H](Cc2c[nH]c3c(C#N)cccc23)NC(=O)[C@H](Cc2ccc(C(=O)O)cc2)NC(=O)[C@H](CC(N)=O)NC(=O)[C@H]2C[C@H](N(C)C)CN2C(=O)[C@H](Cc2cn(CC(=O)O)c3ccccc23)NC(=O)[C@@H]2CC[C@@H](O)CN2C(=O)[C@H](Cc2ccncc2)NC1=O [SEQ ID NO. 2] (cyclo([4Pal][Pip(5R-OH)][Trp(1-CH2COOH)][dPro(trans-4-NMe2)]N[Phe(4-COOH)][Trp(7-CN)][αMeS][Phe(4-SO2NH2)][Phe(4-CONH2)][Sar][Trp(βS-Me,7-OMe)][X1][Nle]))	9.30
CCCC[C@@H]1NC(=O)[C@@H]2CC[C@@H](C2)NC(=O)[C@H]([C@@H](C)c2c[nH]c3c(OC)cccc23)NC(=O)CN(C)C(=O)[C@H](Cc2ccc(OCC(=O)O)cc2)NC(=O)[C@H](Cc2ccc(S(N)(=O)=O)cc2)NC(=O)[C@](C)(CO)NC(=O)[C@H](Cc2c[nH]c3c(C#N)cccc23)NC(=O)[C@H](Cc2ccc(OCC(=O)O)cc2)NC(=O)[C@H](CC(N)=O)NC(=O)[C@H]2C[C@H](N)CN2C(=O)[C@H](Cc2cn(CC(=O)O)c3ccccc23)NC(=O)[C@@H]2CC[C@@H](O)CN2C(=O)[C@H](Cc2ccncc2)NC1=O [SEQ ID NO. 18] (cyclo([4Pal][Pip(5R-OH)][Trp(1-CH2COOH)][dPro(4S-NH2)]NY(Carboxymethyl)[Trp(7-CN)][αMeS][Phe(4-SO2NH2)]Y(Carboxymethyl)[Sar][Trp(βS-Me,7-OMe)][X1][Nle]))	9.22
CCCC[C@@H]1NC(=O)[C@@H]2CC[C@@H](C2)NC(=O)[C@H]([C@@H](C)c2c[nH]c3c(OC)cccc23)NC(=O)CN(C)C(=O)[C@H](Cc2cccc(C(N)=O)c2)NC(=O)[C@H](Cc2ccc(C(N)=O)cc2)NC(=O)[C@](C)(CO)NC(=O)[C@H](Cc2c[nH]c3c(C#N)cccc23)NC(=O)[C@H](Cc2ccc(C(=O)O)cc2)NC(=O)[C@H](CC(N)=O)NC(=O)[C@H]2C[C@H](F)CN2C(=O)[C@H](Cc2c[nH]c3ccccc23)NC(=O)[C@@H]2CC[C@@H](O)CN2C(=O)[C@H](Cc2ccncc2)NC1=O [SEQ ID NO. 21] (cyclo([4Pal][Pip(5R-OH)]W[dPro(trans-4-F)]N[Phe(4-COOH)][Trp(7-CN)][αMeS][Phe(4-CONH2)][Phe(3-CONH2)][Sar][Trp(βS-Me,7-OMe)][X1][Nle]))	9.05
CCCC[C@@H]1NC(=O)[C@@H]2CC[C@@H](C2)NC(=O)[C@H]([C@@H](C)c2c[nH]c3c(OC)cccc23)NC(=O)CN(C)C(=O)[C@H](Cc2ccc(C(N)=O)cc2)NC(=O)[C@H](Cc2ccc(C(N)=O)cc2)NC(=O)[C@](C)(CO)NC(=O)[C@H](Cc2c[nH]c3c(C#N)cccc23)NC(=O)[C@H](Cc2ccc3c(c2)C(=O)NC3)NC(=O)[C@H](CC(N)=O)NC(=O)[C@H]2C[C@H](OCC(=O)O)CN2C(=O)[C@H](Cc2cn(CC(=O)O)c3ccccc23)NC(=O)[C@@H]2CC[C@@H](O)CN2C(=O)[C@H](Cc2ccncc2)NC1=O [SEQ ID NO. 22] (cyclo([4Pal][Pip(5R-OH)][Trp(1-CH2COOH)][dHyp](Carboxymethyl)N[X20][Trp(7-CN)][αMeS][Phe(4-CONH2)][Phe(4-CONH2)][Sar][Trp(βS-Me,7-OMe)][X1][Nle]))	9.22
CCCC[C@@H]1NC(=O)CSC[C@@H](C(N)=O)NC(=O)[C@H]([C@@H](C)c2c[nH]c3c(OC)cccc23)NC(=O)CN(C)C(=O)[C@H](Cc2ccc(O)cc2)NC(=O)[C@H](Cc2ccc(C(=O)O)cc2)NC(=O)[C@](C)(CO)NC(=O)[C@H](Cc2c[nH]c3c(Cl)cccc23)NC(=O)[C@H](Cc2ccncc2)NC(=O)[C@H](CC(N)=O)NC(=O)[C@H](CCC(=O)O)N(C)C(=O)[C@H](Cc2c[nH]c3ncccc23)NC(=O)[C@H]([C@@H](C)O)N(C)C(=O)[C@H](Cc2ccncc2)NC1=O [SEQ ID NO. 29] ({CH2CO}-[Nle][4Pal][NMeT][Trp(7-aza)][NMeE]N[4Pal][Trp(7-Cl)][αMeS][Phe(4-COOH)]Y[Sar][Trp(βS-Me,7-OMe)]C-NH2; thioether N-14)	8.48
CCCC[C@@H]1NC(=O)[C@@H]2CC[C@@H](C2)NC(=O)[C@H]([C@@H](C)c2c[nH]c3c(OC)cccc23)NC(=O)CN(C)C(=O)[C@H](Cc2ccc(CCC(=O)O)cc2)NC(=O)[C@H](Cc2ccc(S(N)(=O)=O)cc2)NC(=O)[C@](C)(CO)NC(=O)[C@H](Cc2c[nH]c3c(C#N)cccc23)NC(=O)[C@H](Cc2ccc(OCC(=O)O)cc2)NC(=O)[C@H](CC(N)=O)NC(=O)[C@H]2C[C@H](O)CN2C(=O)[C@H](Cc2c[nH]c3ncccc23)NC(=O)[C@@H]2CC[C@@H](O)CN2C(=O)[C@H](Cc2ccncc2)NC1=O [SEQ ID NO. 30] (cyclo([4Pal][Pip(5R-OH)][Trp(7-aza)][dHyp]NY(Carboxymethyl)[Trp(7-CN)][αMeS][Phe(4-SO2NH2)][Phe(4-CH2CH2COOH)][Sar][Trp(βS-Me,7-OMe)][X1][Nle]))	9.30
CCCC[C@@H]1NC(=O)CSC[C@@H](C(N)=O)NC(=O)[C@H]([C@@H](C)c2c[nH]c3c(OC)cccc23)NC(=O)CN(C)C(=O)[C@H](Cc2ccc(O)cc2)NC(=O)[C@H](Cc2ccc(C(=O)O)cc2)NC(=O)[C@](C)(CO)NC(=O)[C@H](Cc2c[nH]c3c(Cl)cccc23)NC(=O)[C@H](Cc2ccncc2)NC(=O)[C@H](CC(N)=O)NC(=O)[C@H](CCC(=O)O)N(C)C(=O)[C@H](Cc2c[nH]c3ncccc23)NC(=O)[C@H](C)N(CC)C(=O)[C@H](Cc2ccncc2)NC1=O [SEQ ID NO. 38] ({CH2CO}-[Nle][4Pal][NEtAla][Trp(7-aza)][NMeE]N[4Pal][Trp(7-Cl)][αMeS][Phe(4-COOH)]Y[Sar][Trp(βS-Me,7-OMe)]C-NH2; thioether N-14)	8.51
CCCC[C@@H]1NC(=O)[C@@H]2CC[C@@H](C2)NC(=O)[C@H]([C@@H](C)c2c[nH]c3c(OC)cccc23)NC(=O)CN(C)C(=O)[C@H](Cc2ccc(C(=O)O)cc2F)NC(=O)[C@H](Cc2ccc(C(N)=O)cc2)NC(=O)[C@](C)(CO)NC(=O)[C@H](Cc2c[nH]c3c(Cl)cccc23)NC(=O)[C@H](Cc2ccc(C(=O)O)cc2F)NC(=O)[C@H](CC(N)=O)NC(=O)[C@H]2C[C@H](O)CN2C(=O)[C@H](Cc2c[nH]c3ccccc23)NC(=O)[C@@H]2CC[C@@H](O)CN2C(=O)[C@H](Cc2ccncc2)NC1=O [SEQ ID NO. 41] (cyclo([4Pal][Pip(5R-OH)]W[dHyp]N[Phe(2-F,4-COOH)][Trp(7-Cl)][αMeS][Phe(4-CONH2)][Phe(2-F,4-COOH)][Sar][Trp(βS-Me,7-OMe)][X1][Nle]))	9.22
CCCC[C@@H]1NC(=O)[C@@H]2CC[C@@H](C2)NC(=O)[C@H]([C@@H](C)c2c[nH]c3c(OC)cccc23)NC(=O)CN(C)C(=O)[C@H](Cc2ccc(C(N)=O)cc2)NC(=O)[C@H](Cc2ccc(C(N)=O)cc2)NC(=O)[C@](C)(CO)NC(=O)[C@H](Cc2c[nH]c3c(C#N)cccc23)NC(=O)[C@H](Cc2ccc(C(=O)O)cc2)NC(=O)[C@H](CC(N)=O)NC(=O)[C@H]2C[C@H](O)CN2C(=O)[C@H](Cc2c[nH]c3ccccc23)NC(=O)[C@@H]2CC[C@@H](O)CN2C(=O)[C@H](Cc2ccncc2)NC1=O [SEQ ID NO. 45] (cyclo([4Pal][Pip(5R-OH)]W[dHyp]N[Phe(4-COOH)][Trp(7-CN)][αMeS][Phe(4-CONH2)][Phe(4-CONH2)][Sar][Trp(βS-Me,7-OMe)][X1][Nle]))	9.22
CCCC[C@@H]1NC(=O)[C@@H]2CC[C@@H](C2)NC(=O)[C@H]([C@@H](C)c2c[nH]c3c(OC)cccc23)NC(=O)CN(C)C(=O)[C@H](Cc2ccc(CN)cc2)NC(=O)[C@H](Cc2ccc(C(N)=O)cc2)NC(=O)[C@](C)(CO)NC(=O)[C@H](Cc2c[nH]c3c(C#N)cccc23)NC(=O)[C@H](Cc2ccc(C(=O)O)cc2)NC(=O)[C@H](CC(N)=O)NC(=O)[C@H]2C[C@H](O)CN2C(=O)[C@H](Cc2c[nH]c3ccccc23)NC(=O)[C@@H]2CC[C@@H](O)CN2C(=O)[C@H](Cc2ccncc2)NC1=O [SEQ ID NO. 48] (cyclo([4Pal][Pip(5R-OH)]W[dHyp]N[Phe(4-COOH)][Trp(7-CN)][αMeS][Phe(4-CONH2)][Phe(4-CH2NH2)][Sar][Trp(βS-Me,7-OMe)][X1][Nle]))	9.15
CCCCC[C@@H]1NC(=O)[C@@H]2CC[C@@H](C2)NC(=O)[C@H]([C@@H](C)c2c[nH]c3c(OC)cccc23)NC(=O)CN(C)C(=O)[C@H](Cc2ccc(C(N)=O)cc2)NC(=O)[C@H](Cc2ccc(C(N)=O)cc2)NC(=O)[C@](C)(CO)NC(=O)[C@H](Cc2c[nH]c3c(C#N)cccc23)NC(=O)[C@H](Cc2ccc(C(=O)O)cc2)NC(=O)[C@H](CC(N)=O)NC(=O)[C@H]2C[C@H](O)CN2C(=O)[C@H](Cc2c[nH]c3ccccc23)NC(=O)[C@H](CCS(C)(=O)=O)NC(=O)[C@H]([C@@H](C)c2ccncc2)NC1=O [SEQ ID NO. 49] (cyclo([Ahp(2)][4Pal(3S-Me)][Met(O2)]W[dHyp]N[Phe(4-COOH)][Trp(7-CN)][αMeS][Phe(4-CONH2)][Phe(4-CONH2)][Sar][Trp(βS-Me,7-OMe)][X1]))	9.15

Source: patent publication US20240287138A1, “CYCLIC PEPTIDES FOR INHIBITING TNF RECEPTOR 1 ACTIVITY” (Merck Sharp & Dohme LLC, priority 2023, published 2024)
